This assay has as its target human chemokine receptor CXCR7 (Homo sapiens (Human), UniProt P25106). Put plainly: Tango CXCR7-bla U2OS beta-arrestin recruitment assay (beta-lactamase reporter, FRET), antagonism of CXCL12/SDF1-α.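 Also: compounds preincubated 15 min before CXCL12 addition, then 22 h at 37 °C, FRET emission ratio read with CCF4-AM substrate after 2 h.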 The note with it: antagonistic effect on CXCR7; Tango CXCR7-bla U2OS cells, CXCL12/SDF1-α at its EC80. It counts as cell-based.
Chain of human chemokine receptor CXCR7 (P25106 whole entry): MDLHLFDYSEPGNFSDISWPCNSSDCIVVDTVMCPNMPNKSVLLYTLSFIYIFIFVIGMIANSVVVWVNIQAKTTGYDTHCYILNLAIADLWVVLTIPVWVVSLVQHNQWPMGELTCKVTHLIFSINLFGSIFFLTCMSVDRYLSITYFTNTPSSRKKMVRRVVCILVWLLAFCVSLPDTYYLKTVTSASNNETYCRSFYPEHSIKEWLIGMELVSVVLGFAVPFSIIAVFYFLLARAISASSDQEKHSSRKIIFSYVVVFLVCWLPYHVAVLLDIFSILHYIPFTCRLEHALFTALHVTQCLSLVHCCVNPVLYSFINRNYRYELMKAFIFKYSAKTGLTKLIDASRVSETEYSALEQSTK
The compound `O=C(N[C@H]1CCN(CC2CC2)C[C@@H]1C(=O)NC1(C2CC2)CC1)c1cc(-c2ccc(F)cc2F)on1` [Example 4.045] displayed an IC50 of 164 nM.
Turning to `O=C(N[C@@H]1CCN(C2CCCCC2)C[C@H]1C(=O)NCCc1ccccc1Cl)c1cc(-c2ccc(F)cc2F)on1` (racemic) [Example 1.058, rac-(3R*,4R*)-1-Cyclohexyl-4-{[5-(2,4-difluoro-phenyl)-isoxazole-3-carbonyl]-amino}-piperidine-3-carboxylic acid [2-(2-chloro-phenyl)-ethyl]-amide], the IC50 was 1 nM.
Regarding `C[C@@H](NC(=O)[C@@H]1CN(C2CCCCC2)CC[C@H]1NC(=O)c1cc(-c2c(F)cc(F)cc2F)on1)c1cnccn1` (racemic) [Example 1.129, (3R*,4R*)-1-Cyclohexyl-4-{[5-(2,4,6-trifluoro-phenyl)-isoxazole-3-carbonyl]-amino}-piperidine-3-carboxylic acid ((R)-1-pyrazin-2-yl-ethyl)-amide], 105 nM corresponded to half-maximal inhibition (IC50).
The value for `CN(CCc1ccccn1)C(=O)[C@@H]1CN(C2CCCC2)CC[C@H]1NC(=O)c1cc(-c2ccc(F)cc2F)on1` [Example 2.078] was 72 nM.
Turning to `C[C@@H](NC(=O)[C@H]1CN(C2CCCCC2)CC[C@@H]1NC(=O)c1noc(-c2ccc(F)cc2F)n1)c1ccccn1` (single isomer, unassigned) [Example 1.156a, (3S,4S)-1-Cyclohexyl-4-{[5-(2,4-difluoro-phenyl)-[1,2,4]oxadiazole-3-carbonyl]-amino}-piperidine-3-carboxylic acid ((R)-1-pyridin-2-yl-ethyl)-amide or (3R,4R)-1-Cyclohexyl-4-{[5-(2,4-difluoro-phenyl)-[1,2,4]oxadiazole-3-carbonyl]-amino}-piperidine-3-carboxylic acid ((R)-1-pyridin-2-yl-ethyl)-amide], the IC50 is 19 nM.
Regarding `O=C(N[C@@H]1CCN(CC2CC2)C[C@H]1C(=O)NC1(c2ncccn2)CC1)c1cc(-c2ccc(F)c(F)c2F)on1` (single isomer, unassigned) [Example 1.194a, (3R,4R)-1-Cyclopropylmethyl-4-{[5-(2,3,4-trifluoro-phenyl)-isoxazole-3-carbonyl]-amino}-piperidine-3-carboxylic acid (1-pyrimidin-2-yl-cyclopropyl)-amide or (3S,4S)-1-cyclopropylmethyl-4-{[5-(2,3,4-trifluoro-phenyl)-isoxazole-3-carbonyl]-amino}-piperidine-3-carboxylic acid (1-pyrimidin-2-yl-cyclopropyl)-amide], the IC50 worked out at 13 nM.
Next, `N#Cc1ccc(-c2cc(C(=O)N[C@H]3CCN(CC4CC4)C[C@@H]3C(=O)NC3(c4ncccn4)CC3)no2)cc1` [Example 7.009, (3S,4S)-4-{[5-(4-Cyano-phenyl)-isoxazole-3-carbonyl]-amino}-1-cyclopropylmethyl-piperidine-3-carboxylic acid (1-pyrimidin-2-yl-cyclopropyl)-amide]: 240 nM.
The value for `CN(C)C(=O)[C@@H]1CN(CC2CCC2)CC[C@H]1NC(=O)c1cc(-c2ccc(F)cc2F)on1` [Example 2.038] was 99 nM.
The value for `CC(C)(C)N1CC[C@@H](NC(=O)c2cc(-c3ccc(F)cc3F)on2)[C@H](C(=O)NC2(c3ncccn3)CC2)C1` [Example 4.101] was 71 nM; that for `Cc1ccccc1C1(NC(=O)[C@H]2CN(C3CCC3)CC[C@@H]2NC(=O)c2cc(-c3ccc(F)cc3F)on2)CC1` [Example 4.088] was 138 nM; that for `O=C(N[C@H]1CCN(CC2CC2)C[C@@H]1C(=O)NC1(c2ncccn2)CC1)c1noc(-c2ccc(F)cc2)c1F` [Example 7.001, (3S,4S)-1-Cyclopropylmethyl-4-{[4-fluoro-5-(4-fluoro-phenyl)-isoxazole-3-carbonyl]-amino}-piperidine-3-carboxylic Acid (1-pyrimidin-2-yl-cyclopropyl)-amide] was 32 nM.
As for `C[C@@H](NC(=O)[C@@H]1CN(C2CCCCC2)CC[C@H]1NC(=O)c1cc(-c2c(F)cc(F)cc2F)on1)c1ccccn1` (racemic) [Example 1.121, (3R*,4R*)-1-Cyclohexyl-4-{[5-(2,4,6-trifluoro-phenyl)-isoxazole-3-carbonyl]-amino}-piperidine-3-carboxylic acid ((R)-1-pyridin-2-yl-ethyl)-amide], the IC50 was 4 nM.
Next, `O=C(N[C@@H]1CCN(C2CCCCC2)C[C@H]1C(=O)NC(c1ccccn1)C(F)(F)F)c1cc(-c2ccc(F)cc2F)on1` (relative stereo) [Example 1.069, (3R*,4R*)-1-Cyclohexyl-4-{[5-(2,4-difluoro-phenyl)-isoxazole-3-carbonyl]-amino}-piperidine-3-carboxylic acid ((1RS)-2,2,2-trifluoro-1-pyridin-2-yl-ethyl)-amide]: 556 nM; `N#CCN1CC[C@H](NC(=O)c2cc(-c3ccc(F)cc3F)on2)[C@@H](C(=O)NC2(c3ncccn3)CC2)C1` [Example 4.051]: 356 nM; `O=C(N[C@@H]1CCN(C2CCCCC2)C[C@H]1C(=O)NC1(c2ccc(F)cn2)CC1)c1cn(-c2ccc(F)cc2F)nn1` (racemic) [Example 1.142, rac-(3R*,4R*)-1-Cyclohexyl-4-{[1-(2,4-difluoro-phenyl)-1H-[1,2,3]triazole-4-carbonyl]-amino}-piperidine-3-carboxylic acid [1-(5-fluoro-pyridin-2-yl)-cyclopropyl]-amide]: 472 nM.
The value for `C[C@H]([C@@H](C)O)N1CC[C@@H](NC(=O)c2cc(-c3ccc(F)cc3F)on2)[C@H](C(=O)N(C)C)C1` [Example 2.049] was 709 nM; that for `Cc1cc(C)nc(C2(NC(=O)[C@H]3CN(CC4CC4)CC[C@@H]3NC(=O)c3cc(-c4ccc(F)cc4F)on3)CC2)n1` [Example 1.185, (3S,4S)-1-Cyclopropylmethyl-4-{[5-(2,4-difluoro-phenyl)-isoxazole-3-carbonyl]-amino}-piperidine-3-carboxylic acid [1-(4,6-dimethyl-pyrimidin-2-yl)-cyclopropyl]-amide] was 9 nM; that for `O=C(N[C@H]1CCN(CC2CC2)C[C@@H]1C(=O)NC1(c2ccccn2)CC1)c1cn(-c2ccc(F)cc2F)nn1` [Example 2.091] was 62 nM.
Next, `Cc1cccnc1C(C)(C)CNC(=O)[C@@H]1CN(C2CCC2)CC[C@H]1NC(=O)c1cc(-c2ccc(F)cc2F)on1` [Example 4.086]: 472 nM.
`C[C@@H](NC(=O)[C@@H]1CN(C2CCCC2)CC[C@H]1NC(=O)c1cn(-c2ccc(F)cc2F)nn1)c1ccccn1` (relative stereo) [Example 1.118, (3R*,4R*)-1-Cyclopentyl-4-{[1-(2,4-difluoro-phenyl)-1H-[1,2,3]triazole-4-carbonyl]-amino}-piperidine-3-carboxylic acid ((R)-1-pyridin-2-yl-ethyl)-amide]: the IC50 worked out at 36 nM.
The value for `O=C(N[C@H]1CCN(CC2CC2)C[C@@H]1C(=O)NC1(c2ccccn2)CC1)c1cc(-c2ccc(F)cc2F)on1` [Example 4.031] was 4 nM; that for `O=C(N[C@@H]1CCN(CC2CC2)C[C@H]1C(=O)NCc1ncccn1)c1cc(-c2ccc(F)cc2F)on1` [Example 4.099] was 852 nM.
Next, `C[C@@H](NC(=O)[C@H]1CN(CC2CC2)CC[C@@H]1NC(=O)c1cc(-c2c(F)cc(F)cc2F)on1)c1ccccn1` (single isomer, unassigned) [Example 1.123a, (3S,4S)-1-Cyclopropylmethyl-4-{[5-(2,4,6-trifluoro-phenyl)-isoxazole-3-carbonyl]-amino}-piperidine-3-carboxylic acid ((R)-1-pyridin-2-yl-ethyl)-amide or (3R,4R)-1-Cyclopropylmethyl-4-{[5-(2,4,6-trifluoro-phenyl)-isoxazole-3-carbonyl]-amino}-piperidine-3-carboxylic acid ((R)-1-pyridin-2-yl-ethyl)-amide]: 4 nM; `O=C(N[C@@H]1CCN(CC2CC2)C[C@H]1C(=O)NC1(c2ncccn2)CC1)c1cc(-c2ccc(C(F)(F)F)cc2)on1` (single isomer, unassigned) [Example 1.192a, (3R*,4R*)-1-Cyclopropylmethyl-4-{[5-(4-trifluoromethyl-phenyl)-isoxazole-3-carbonyl]-amino}-piperidine-3-carboxylic acid (1-pyrimidin-2-yl-cyclopropyl)-amide]: 854 nM; `CC(CO)NC(=O)[C@@H]1CN(C2CCCCC2)CC[C@H]1NC(=O)c1cc(-c2ccc(F)cc2F)on1` (relative stereo) [Example 1.076, (3R*,4R*)-1-Cyclohexyl-4-{[5-(2,4-difluoro-phenyl)-isoxazole-3-carbonyl]-amino}-piperidine-3-carboxylic acid ((1RS)-2-hydroxy-1-methyl-ethyl)-amide]: 604 nM.
Next, `C[C@@H]1CCC[C@H]1N1CC[C@@H](NC(=O)c2cc(-c3c(F)cc(F)cc3F)on2)[C@H](C(=O)N(C)C)C1` (relative stereo) [Example 1.101, (3R*,4R*)-1-((1RS,2RS)-2-Methyl-cyclopentyl)-4-{[5-(2,4,6-trifluoro-phenyl)-isoxazole-3-carbonyl]-amino}-piperidine-3-carboxylic acid dimethylamide]: 45 nM; `COCC(C)(C)NC(=O)[C@H]1CN(C2CCCCC2)CC[C@@H]1NC(=O)c1cc(-c2ccc(F)cc2F)on1` [Example 4.002]: 60 nM; `CN(CCO)C(=O)[C@@H]1CN(C2CCCCC2)CC[C@H]1NC(=O)c1cc(-c2ccc(F)cc2F)on1` (racemic) [Example 1.005, rac-(3R*,4R*)-1-Cyclohexyl-4-{[5-(2,4-difluoro-phenyl)-isoxazole-3-carbonyl]-amino}-piperidine-3-carboxylic acid (2-hydroxy-ethyl)-methyl-amide]: 198 nM.
In turn, `C[C@@H](NC(=O)[C@@H]1CN(CC2CC2)CC[C@H]1NC(=O)c1cc(-c2c(F)cc(F)cc2F)on1)c1ccccn1` (relative stereo) [Example 1.123, (3R*,4R*)-1-Cyclopropylmethyl-4-{[5-(2,4,6-trifluoro-phenyl)-isoxazole-3-carbonyl]-amino}-piperidine-3-carboxylic acid ((R)-1-pyridin-2-yl-ethyl)-amide] gave an IC50 of 15 nM.
Next, `CCN(CC)C(=O)[C@H]1CN(CC2CC2)CC[C@@H]1NC(=O)c1cc(-c2ccc(F)cc2F)on1` [Example 4.066]: 320 nM.

Usually IC50 stands for the concentration needed to halve the response being measured. Low values mean greater potency, high ones weaker potency.

The record behind these values is patent US11306078B2, “Piperidine CXCR7 receptor modulators” (IDORSIA PHARMACEUTICALS LTD., priority 2016, dated 2022).
